{"source": "patent EP0900210B1", "about": "“ANTIVIRALLY ACTIVE HETEROCYCLIC AZAHEXANE DERIVATIVES” (Novartis AG, priority 1996, dated 1997)", "key": {"HIV-1-protease": {"biological_target": "T1, HIV-1-protease (Human immunodeficiency virus type 1 group M subtype B, UniProt P04585)", "T1 construct": "made in house", "test": "Inhibition of HIV-1-protease with icosapeptide substrate […] (HPLC)", "assay_type": "biochemical"}, "451/76F strain": {"test_system": "451/76F strain", "conditions": "451/76F strain established against Lasinavir; comparison with saquinavir, indinavir, ritonavir", "description": "(§1) By way of PCR-supported mutagenesis and cloning, HIV-1 protease mutants are generated that are based on the infectious clone pNL4-3 (freely available via the \"NIH AIDS reference and reagent program\", the original reference is A. Adachi et al. J. Virol (1986) 59, 284-91 - but it can, of course, be any other HIV clone, or even clinical material, provided that comparability is ensured). […] The cloned fragments are, for example, only 500 base pairs in length, all of the remainder being unchanged. By using mutations in always the same clone, direct comparability is ensured, which would not be the case in a direct comparison of clinical samples or of different HIV clones. […] That system is used as a transient DNA transfection system for tests: • 1) in order to identify possible cross-resistances of protease variants to several protease inhibitors; and • 2) in order to establish the potency and resistance profile of novel inhibitor candidates.\n(§2) Instead of the strains mentioned, there may be used any human T4-positive cells, such as the HeLa T4 cells, deposited under that name by Richard Axel and Paul Maddon in \"NIH AIDS reference and reagent program\" and obtainable via that source."}, "HIV-1/MN": {"test_system": "HIV-1/MN", "test": "Protection of MT-2 cells against HIV infection (reverse transcriptase activity in supernatant)", "assay_type": "cell-based", "conditions": "Human immunodeficiency virus 1, MT2, 96 h; read-out: ED90 (the source's name)", "quoted_text": "For this test, MT-2-cells infected with HIV-1/MN are used. MT-2-cells have been transformed with HTLV-1 (a virus causing leukaemia) and a continuous producer thereof; they are therefore especially sensitive to the cytopathogenic effect of HIV. MT-2-cells can be obtained via the AIDS Research and Reference Reagent Program, Division of AIDS, NIAID, NIH from Dr. Douglas Richman (see J. Biol. Chem. 263, 5870-5875 (1988) and also Science 229, 563-566 1985)). The MT-2-cells are cultured in RPMI 1640-medium (Gibco, Scotland; RPMI comprises an amino acid mixture without glutamine) supplemented with 10% heat-inactivated foetal calf serum, glutamine and standard antibiotics. In all cases the cells, and also the virus stock solution used for the infection (HIV-1/MN), are free of mycoplasms. […] The titre of the HIV-1/MN virus stock solution (determined by titration onto MT-2-cells) is 4.2 x 10^5 TCID50/ml (TCID50 = Tissue Culture Infective Dose = dose that infects 50 % of the MT-2-cells). […] Prior to the test, 0.1 % (v/v) [alpha-^32P]dTTP is added to aliquots of the solution in order to establish a radioactivity of 10 µCi/ml.\nAfter mixing, the plate is incubated for 2 hours at 37°C. […] The radioactivity on the filters is measured in a Matrix Packard 96-well counter (Packard, Zürich, Switzerland). […]"}, "[1]": {"test": "Pharmacokinetics: plasma level in mice after oral administration", "assay_type": "in vivo, female BALB/c mice", "conditions": "mouse, oral administration of 120 mg/kg", "experimental": "The blood is centrifuged (12 000 x g, 5 min) and the plasma removed.\nThe flow rate is 1 ml/min."}, "46I/47V/50V (VX478)": {"test_system": "46I/47V/50V (VX478)", "test": "Transient DNA transfection assay in HeLaT4 cells, other resistant strains", "assay_type": "cell-based, HIV-1", "conditions": "10nM; strains e.g. 46I/47V/50V (VX478); not quantified", "description": "as §1, §2"}, "[2]": {"test_system": "HIV-1 (infectious clone pNL4-3)", "test": "Transient DNA transfection assay in HeLaT4 cells, in vitro potency", "assay_type": "cell-based", "conditions": "Human immunodeficiency virus 1, HeLaT4", "description": "as §1, §2"}, "[3]": {"conditions": "icosapeptide […] 122 µM, 20 mM MES pH 6.0, one hour at 37°C, read-out: IC50"}}, "note": "Like-named read-outs stand apart in the source and are kept apart here."}
{"smiles": "COC(=O)N[C@H](C(=O)N[C@@H](Cc1ccccc1)[C@@H](O)CN(Cc1ccc(-c2cnccn2)cc1)NC(=O)[C@@H](NC(=O)OC)C(C)C)C(C)C", "note": "[Example 40, 1-[4-(Pyrazin-2-yl)-phenyl]-4(S)-hydroxy-5(S)-2,5-bis[N-(N-methoxycarbonyl-(L)-valyl)amino]-6-phenyl-2-azahexane]", "values": [{"measurement": "IC50", "setting": "HIV-1-protease; [3]", "value": 21, "unit": "nM"}]}
{"smiles": "CC[C@H](C)[C@H](NC(=O)OC)C(=O)NN(Cc1ccc(-c2cnccn2)cc1)C[C@H](O)[C@H](Cc1ccccc1)NC(=O)[C@@H](NC(=O)OC)C(C)C", "note": "[Example 41, 1-[4-(Pyrazin-2-yl)-phenyl]-4(S)-hydroxy-2-[N-(N-methoxycarbonyl-(L)-iso-leucyl)amino]-5(S)-[N-(N-methoxycarbonyl-(L)-valyl)amino]-6-phenyl-2-azahexane]", "values": [{"measurement": "IC50", "setting": "HIV-1-protease; [3]", "value": 32, "unit": "nM"}]}
{"smiles": "COC(=O)N[C@H](C(=O)N[C@@H](Cc1ccccc1)[C@@H](O)CN(Cc1ccc(-c2cnccn2)cc1)NC(=O)[C@@H](NC(=O)OC)C(C)(C)C)C(C)C", "note": "[Example 42, 1-[4-(Pyrazin-2-yl)-phenyl]-4(S)-hydroxy-2-[N-(N-methoxycarbonyl-(L)-tert-leucyl)amino]-5(S)-[N-(N-methoxycarbonyl-(L)-valyl)amino]-6-phenyl-2-azahexane]", "values": [{"measurement": "IC50", "setting": "HIV-1-protease; [3]", "value": 15, "unit": "nM"}]}
{"smiles": "CC[C@H](C)[C@H](NC(=O)OC)C(=O)N[C@@H](Cc1ccccc1)[C@@H](O)CN(Cc1ccc(-c2cnccn2)cc1)NC(=O)[C@@H](NC(=O)OC)[C@@H](C)CC", "note": "[Example 43, 1-[4-(Pyrazin-2-yl)-phenyl]-4(S)-hydroxy-5(S)-2,5-bis[N-(N-methoxycarbonyl-(L)-iso-leucyl)amino]-6-phenyl-2-azahexane]", "values": [{"measurement": "IC50", "setting": "HIV-1-protease; [3]", "value": 37, "unit": "nM"}]}
{"smiles": "COC(=O)N[C@H](C(=O)N[C@@H](Cc1ccccc1)[C@@H](O)CN(Cc1ccc(-c2cccs2)cc1)NC(=O)[C@@H](NC(=O)OC)C(C)C)C(C)C", "note": "[Example 45, 1-[4-(Thiophen-2-yl)-phenyl]-4(S)-hydroxy-5(S)-2,5-bis[N-(N-methoxycarbonyl-(L)-valyl)amino]-6-phenyl-2-azahexane]", "values": [{"measurement": "IC50", "setting": "HIV-1-protease; [3]", "value": 12, "unit": "nM"}]}
{"smiles": "COC(=O)N[C@H](C(=O)N[C@@H](Cc1ccccc1)[C@@H](O)CN(Cc1ccc(-c2ccccn2)cc1)NC(=O)[C@@H](NC(=O)OC)C(C)(C)C)C(C)(C)C", "note": "[Example 46, 1-[4-(Pyridin-2-yl)-phenyl]-4(S)-hydroxy-5(S)-2,5-bis[N-(N-methoxycarbonyl-(L)-tert-leucyl)amino]-6-phenyl-2-azahexane]", "values": [{"measurement": "activity against a resistant variant", "setting": "451/76F strain", "value": "comparable with saquinavir and better than that of indinavir"}, {"measurement": "EC90", "setting": "HIV-1/MN", "value": 3, "unit": "nM"}, {"measurement": "concentration at 0.5 h", "setting": "[1]; 30 min after administration", "value": 21.8, "unit": "µM"}, {"measurement": "concentration at 1.5 h", "setting": "[1]; 90 min after administration", "value": 31.8, "unit": "µM"}, {"measurement": "IC50", "setting": "HIV-1-protease; [3]", "value": 26, "unit": "nM"}, {"measurement": "activity compared with other strains", "setting": "46I/47V/50V (VX478)", "value": "more potent (not quantified) than that of saquinavir, ritonavir and indinavir"}, {"measurement": "IC90", "setting": "[2]", "value": "< 30", "unit": "nM"}]}
{"smiles": "CC[C@H](C)[C@H](NC(=O)OC)C(=O)N[C@@H](Cc1ccccc1)[C@@H](O)CN(Cc1ccc(-c2ccccn2)cc1)NC(=O)[C@@H](NC(=O)OC)[C@@H](C)CC", "note": "[Example 47, [4-(Pyridin-2-yl)-phenyl]-4(S)-hydroxy-5(S)-2,5-bis[N-(N-methoxycarbonyl-(L)-iso-leucyl)amino]-6-phenyl-2-azahexane]", "values": [{"measurement": "IC50", "setting": "HIV-1-protease; [3]", "value": 40, "unit": "nM"}]}
{"smiles": "COC(=O)N[C@H](C(=O)NN(Cc1ccc(-c2ccccn2)cc1)C[C@H](O)[C@H](Cc1ccccc1)NC(=O)[C@@H](NC(=O)OC)C(C)(C)C)C(C)C", "note": "[Example 48, 1-[4-(Pyridin-2-yl)-phenyl]-4(S)-hydroxy-2-N-(N-methoxy-carbonyl-(L)-valyl)amino-5(S)-N-(N-methoxycarbonyl-(L)-tert-leucyl)amino-6-phenyl-2-azahexane]", "values": [{"measurement": "IC50", "setting": "HIV-1-protease; [3]", "value": 31, "unit": "nM"}]}
{"smiles": "COC(=O)N[C@H](C(=O)N[C@@H](Cc1ccccc1)[C@@H](O)CN(Cc1ccc(-c2ccccn2)cc1)NC(=O)[C@@H](NC(=O)OC)C(C)(C)C)C(C)C", "note": "[Example 49, 1-[4-(Pyridin-2-yl)-phenyl]-4(S)-hydroxy-2-N-(N-methoxy-carbonyl-(L)-tert-leucyl)amino-5(S)-N-(N-methoxycarbonyl-(L)-valyl)amino-6-phenyl-2-azahexane]", "values": [{"measurement": "IC50", "setting": "HIV-1-protease", "value": 20, "unit": "nM"}]}
{"smiles": "CC[C@H](C)[C@H](NC(=O)OC)C(=O)N[C@@H](Cc1ccccc1)[C@@H](O)CN(Cc1ccc(-c2ccccn2)cc1)NC(=O)[C@@H](NC(=O)OC)C(C)C", "note": "[Example 50, 1-[4-(Pyridin-2-yl)-phenyl]-4(S)-hydroxy-2-N-(N-methoxy-carbonyl-(L)-valyl)amino-5(S)-N-(N-methoxycarbonyl-(L)-iso-leucyl)amino-6-phenyl-2-azahexane]", "values": [{"measurement": "IC50", "setting": "HIV-1-protease", "value": 28, "unit": "nM"}]}
{"smiles": "CC[C@H](C)[C@H](NC(=O)OC)C(=O)NN(Cc1ccc(-c2ccccn2)cc1)C[C@H](O)[C@H](Cc1ccccc1)NC(=O)[C@@H](NC(=O)OC)C(C)C", "note": "[Example 51, 1-[4-(Pyridin-2-yl)-phenyl]-4(S)-hydroxy-2-N-(N-methoxy-carbonyl-(L)-iso-leucyl)amino-5(S)-N-(N-methoxycarbonyl-(L)-valyl)amino-6-phenyl-2-azahexane]", "values": [{"measurement": "IC50", "setting": "HIV-1-protease", "value": 34, "unit": "nM"}]}
{"smiles": "CCOC(=O)N[C@H](C(=O)NN(Cc1ccc(-c2ccccn2)cc1)C[C@H](O)[C@H](Cc1ccccc1)NC(=O)[C@@H](NC(=O)OC)C(C)C)C(C)C", "note": "[Example 52, 1-[4-(Pyridin-2-yl)-phenyl]-4(S)-hydroxy-2-N-(N-ethoxy-carbonyl-(L)-valyl)-amino-5(S)-N-(N-methoxycarbonyl-(L)-valyl)amino-6-phenyl-2-azahexane]", "values": [{"measurement": "IC50", "setting": "HIV-1-protease; [3]", "value": 34, "unit": "nM"}]}
